Assay results: patent publication US20240374585A1, “EPITHELIAL SODIUM CHANNEL (ENAC) INHIBITOR CONJUGATES AND METHODS FOR USE THEREOF” (Lung Therapeutics, Inc., priority 2021, published 2024)
Where a SMILES comes first, the peptide text is derived from it. [ ]: non-standard residue; d: D form. The star is where a group is joined. X2 = NC(=NC(=O)c1nc(Cl)c(N)nc1N)NCCCCN1C(=O)CC(*)C1=O; Hyp = O=C(O)[C@@H]1C[C@@H](O)CN1; Ahx = NCCCCCC(=O)O

biological target: T1, ENaC (Homo sapiens, UniProt P37088+P51168+P51170); experiment: ENaC inhibition in NHBE cell monolayers, Ussing epithelial voltage clamp (short circuit current); type: cell-based; settings: not given
T1 construct: Primary NHBE cells were isolated from bronchi of normal healthy patients; endogenous in cells; host or cells: primary normal human bronchial epithelial (NHBE) cells, differentiated at air-liquid interface
T1 sequence (P37088 1-669): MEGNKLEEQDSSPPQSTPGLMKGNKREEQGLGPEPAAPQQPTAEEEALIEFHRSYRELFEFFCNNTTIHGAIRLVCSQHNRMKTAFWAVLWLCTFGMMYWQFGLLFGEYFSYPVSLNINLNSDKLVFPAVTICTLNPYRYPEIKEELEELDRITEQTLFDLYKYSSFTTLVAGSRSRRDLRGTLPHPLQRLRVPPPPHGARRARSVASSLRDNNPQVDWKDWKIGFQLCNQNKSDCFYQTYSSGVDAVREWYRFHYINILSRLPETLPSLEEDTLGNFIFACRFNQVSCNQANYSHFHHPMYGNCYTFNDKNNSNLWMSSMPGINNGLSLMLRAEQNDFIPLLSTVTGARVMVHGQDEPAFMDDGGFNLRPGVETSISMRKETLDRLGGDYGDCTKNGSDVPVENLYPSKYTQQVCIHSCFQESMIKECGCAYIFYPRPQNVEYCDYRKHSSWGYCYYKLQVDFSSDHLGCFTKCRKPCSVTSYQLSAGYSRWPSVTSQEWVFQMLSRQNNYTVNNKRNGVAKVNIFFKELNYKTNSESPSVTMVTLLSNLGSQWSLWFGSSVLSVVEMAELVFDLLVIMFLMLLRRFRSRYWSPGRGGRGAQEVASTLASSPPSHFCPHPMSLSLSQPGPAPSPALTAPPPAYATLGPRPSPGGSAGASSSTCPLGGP
T1 sequence (P51168 1-640): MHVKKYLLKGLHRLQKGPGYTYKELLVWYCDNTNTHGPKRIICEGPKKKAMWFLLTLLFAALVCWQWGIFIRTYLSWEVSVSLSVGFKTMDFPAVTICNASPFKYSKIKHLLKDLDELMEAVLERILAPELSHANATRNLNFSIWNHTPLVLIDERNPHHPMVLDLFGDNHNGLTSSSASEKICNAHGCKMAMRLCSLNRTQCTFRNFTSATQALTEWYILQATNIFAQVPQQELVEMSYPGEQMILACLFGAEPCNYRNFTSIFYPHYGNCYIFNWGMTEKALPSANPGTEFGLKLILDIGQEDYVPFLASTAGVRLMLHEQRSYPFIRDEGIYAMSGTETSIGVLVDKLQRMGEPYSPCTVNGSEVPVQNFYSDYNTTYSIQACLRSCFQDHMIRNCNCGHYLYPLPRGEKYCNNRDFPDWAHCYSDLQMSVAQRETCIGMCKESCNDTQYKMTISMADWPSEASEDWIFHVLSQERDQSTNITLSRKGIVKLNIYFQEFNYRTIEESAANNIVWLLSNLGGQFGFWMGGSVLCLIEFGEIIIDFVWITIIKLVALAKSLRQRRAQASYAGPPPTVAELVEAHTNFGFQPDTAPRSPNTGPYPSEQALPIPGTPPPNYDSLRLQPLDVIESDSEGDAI
T1 sequence (P51170 1-649): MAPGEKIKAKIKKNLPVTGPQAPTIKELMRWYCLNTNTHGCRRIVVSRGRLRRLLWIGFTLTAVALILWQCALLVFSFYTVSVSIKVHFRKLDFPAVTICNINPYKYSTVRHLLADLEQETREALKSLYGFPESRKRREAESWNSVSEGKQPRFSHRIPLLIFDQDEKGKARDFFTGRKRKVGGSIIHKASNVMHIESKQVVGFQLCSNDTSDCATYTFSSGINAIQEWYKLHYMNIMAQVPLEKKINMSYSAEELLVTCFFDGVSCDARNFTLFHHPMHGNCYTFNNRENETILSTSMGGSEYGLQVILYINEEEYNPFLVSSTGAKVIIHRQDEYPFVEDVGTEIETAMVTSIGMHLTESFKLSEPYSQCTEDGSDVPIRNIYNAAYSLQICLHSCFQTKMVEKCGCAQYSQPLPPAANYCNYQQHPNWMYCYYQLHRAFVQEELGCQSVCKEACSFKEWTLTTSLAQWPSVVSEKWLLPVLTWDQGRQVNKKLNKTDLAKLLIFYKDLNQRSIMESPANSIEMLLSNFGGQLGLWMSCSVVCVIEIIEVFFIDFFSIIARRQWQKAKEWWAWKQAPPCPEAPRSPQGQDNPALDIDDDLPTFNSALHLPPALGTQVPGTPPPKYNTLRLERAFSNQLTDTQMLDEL
Description: The objective of this study was to measure the ability of the illustrative conjugates to modulate ion transport function of ENAC in normal human bronchial epithelial (NHBE) cell monolayers. Sodium transport function of ENAC expressed in NHBE monolayers was evaluated using an Ussing epithelial voltage clamp apparatus. See, Hirsh et al., J. Pharmacol. Exp. Ther. 2008; 325:77-88, hereby incorporated by reference in its entirety.
Primary NHBE cells were isolated from bronchi of normal healthy patients, expanded in Lonza media (BEGM™ BulletKit™), and plated on Snapwell™ filters to form an epithelium. Cells on Snapwell™ inserts were grown for at least 21 days in Vertex Differentiation media and exposed to an air-liquid interface to promote differentiation. At least one day before the assay, mucous overlaying the apical surface was removed from the inserts by incubating the apical surface for about 30 minutes with ≥200 μL of differentiation media followed by aspiration of the mucous film and media.
The NHBE cell monolayers grown on Snapwell™ filter inserts were transferred to Physiologic Instruments Ussing recording chambers (Physiologic Instruments, Inc., San Diego, CA) and superfused with HB-PS. One or more 6-channel or 8-channel Physiologic Instruments VCC MC6 or VCC MC8 epithelial voltage clamps were used in combination to record short circuit current (ISC) from up to 24 inserts simultaneously. Air was used to operate the bubble lifts to rapidly circulate solutions in each Ussing chamber half and to aerate the monolayers.
Inserts were voltage clamped at 0 m V to record the ISC. Bumetanide (20 μM) was added to the basolateral side of all inserts. Test conjugates prepared as DMSO (Sigma-Aldrich) stocks were added cumulatively and sequentially to the apical Ussing chamber halves with at least 3 minutes between each addition.
Time and volume matched additions of DMSO to the basolateral side of the test conjugate treated inserts and both sides of the vehicle treated inserts was made to maintain osmotic balance across the epithelia. Transepithelial resistance was monitored with small voltage steps. The assay was performed at 35±2° C.
ENaC current at each test conjugate concentration was calculated as the peak current change produced by each test conjugate treated insert minus the mean current change produced by the corresponding DMSO additions to time-matched vehicle controls inserts. Cumulative difference data was fit to a Hill equation of the form: […]
Where IEnaC is the ISC peak difference current measured at each test conjugate concentration [Test].

| Compound | IC50 |
| --- | --- |
| CC[C@H](C)[C@H](NC(=O)[C@H](Cc1ccc(O)cc1)NC(=O)[C@@H]1C[C@@H](O)CN1C(=O)[C@H](C)NC(=O)[C@H](CC(C)C)NC(=O)[C@H](C)NC(=O)CCCCCNC(=O)[C@H](CSC1CC(=O)N(CCCCNC(N)=NC(=O)c2nc(Cl)c(N)nc2N)C1=O)NC(C)=O)C(N)=O (stereo partly shown) [Conjugate 10, Ac-(AmilTC-C)-Ahx-ALA(Hyp)YI-NH2] (Ac-C(X2)[Ahx]ALA[Hyp]YI-NH2) | 490 nM |
| CC(=O)N[C@@H](CCCCn1cc(CCCCCNC(N)=NC(=O)c2nc(Cl)c(N)nc2N)nn1)C(=O)NCCCCCC(=O)N[C@@H](C)C(=O)N[C@@H](CO)C(=O)N[C@@H](Cc1c[nH]cn1)C(=O)N[C@@H](CC(C)C)C(=O)N[C@@H](CCCNC(=N)N)C(=O)N[C@@H](CCCCN)C(=O)N[C@@H](CC(C)C)C(=O)N[C@@H](CCCNC(=N)N)C(=O)N[C@@H](CCCCN)C(=O)N[C@@H](CCCNC(=N)N)C(=O)N[C@@H](CC(C)C)C(=O)N[C@@H](CC(C)C)C(N)=O [Conjugate 5] | 30 nM |
| CC(=O)N[C@@H](CSC1CC(=O)N(CCCCNC(N)=NC(=O)c2nc(Cl)c(N)nc2N)C1=O)C(=O)NCCCCCC(=O)N[C@@H](C)C(=O)N[C@@H](CO)C(=O)N[C@@H](Cc1c[nH]cn1)C(=O)N[C@@H](CC(C)C)C(=O)N[C@@H](CCCNC(=N)N)C(=O)N[C@@H](CCCCN)C(=O)N[C@@H](CC(C)C)C(=O)N[C@@H](CCCNC(=N)N)C(=O)N[C@@H](CCCCN)C(=O)N[C@@H](CCCNC(=N)N)C(=O)N[C@@H](CC(C)C)C(=O)N[C@@H](CC(C)C)C(N)=O (stereo partly shown) [Conjugate 11] (Ac-C(X2)[Ahx]ASHLRKLRKRLL-NH2) | 70 nM |

same assay, conditions: NHBE cell monolayers, Ussing chamber, apical addition, 35±2° C.

| Compound | IC50 for the ENaC inhibition |
| --- | --- |
| Ac-K-(Ahx)-VSKRR-NH2 (Ac-K[Ahx]VSKRR-NH2) [Peptide only Control 3, Peptide only control, reference compound] | Did not inhibit |
| Ac-K-(Ahx)-ALA(Hyp)YI-NH2 (Ac-K[Ahx]ALA[Hyp]YI-NH2) [Peptide only Control 1, Peptide only control, reference compound] | Did not inhibit |
| Ac-K-(Ahx)-ASHLRKLRKRLL-NH2 (Ac-K[Ahx]ASHLRKLRKRLL-NH2) [Peptide only Control 2, Peptide only control, reference compound] | Did not inhibit |

same assay, conditions: NHBE cell monolayers, Ussing chamber, apical addition, 35±2° C.; read-out: IC50 for the ENaC inhibition

| Compound | IC50 |
| --- | --- |
| CC(=O)N[C@@H](CSC1CC(=O)N(CCCCNC(N)=NC(=O)c2nc(Cl)c(N)nc2N)C1=O)C(=O)NCCCCCC(=O)N[C@H](C(=O)N[C@@H](CO)C(=O)N[C@@H](CCCCN)C(=O)N[C@@H](CCCNC(=N)N)C(=O)N[C@@H](CCCNC(=N)N)C(N)=O)C(C)C (stereo partly shown) [Conjugate 12, Ac-(AmilTC-C)-Ahx-VSKRR-NH2] (Ac-C(X2)[Ahx]VSKRR-NH2) | 80 nM |
| CC[C@H](C)[C@H](NC(=O)[C@H](Cc1ccc(O)cc1)NC(=O)[C@@H]1C[C@@H](O)CN1C(=O)[C@H](C)NC(=O)[C@H](CC(C)C)NC(=O)[C@H](C)NC(=O)CCCCCNC(=O)[C@H](Cc1cn(CCCCNC(N)=NC(=O)c2nc(Cl)c(N)nc2N)nn1)NC(C)=O)C(N)=O [Conjugate 7, Ac-(AmilCC2-Pgy)-Ahx-ALA(Hyp)YI-NH2] | 790 nM |
| CC[C@H](C)[C@H](NC(=O)[C@H](Cc1ccc(O)cc1)NC(=O)[C@@H]1C[C@@H](O)CN1C(=O)[C@H](C)NC(=O)[C@H](CC(C)C)NC(=O)[C@H](C)NC(=O)CCCCCNC(=O)[C@H](CCCCNC(N)=NC(=O)c1nc(Cl)c(N)nc1N)NC(C)=O)C(N)=O [Conjugate 1, Ac-(AmilAC)K-(Ahx)-ALA(Hyp)YI-NH2] (HELM PEPTIDE1{[ac].[NC(=NC(=O)c1nc(Cl)c(N)nc1N)NCCCC[C@H](N[*:1])C(=O)[*:2]].[O=C(CCCCCN[*:1])[*:2]].A.L.A.[Hyp].Y.I.[am]}$$$$V2.0) | 290 nM |
| CC(=O)N[C@@H](CCCCNC(N)=NC(=O)c1nc(Cl)c(N)nc1N)C(=O)NCCCCCC(=O)N[C@@H](C)C(=O)N[C@@H](CO)C(=O)N[C@@H](Cc1c[nH]cn1)C(=O)N[C@@H](CC(C)C)C(=O)N[C@@H](CCCNC(=N)N)C(=O)N[C@@H](CCCCN)C(=O)N[C@@H](CC(C)C)C(=O)N[C@@H](CCCNC(=N)N)C(=O)N[C@@H](CCCCN)C(=O)N[C@@H](CCCNC(=N)N)C(=O)N[C@@H](CC(C)C)C(=O)N[C@@H](CC(C)C)C(N)=O [Conjugate 2] (HELM PEPTIDE1{[ac].[NC(=NC(=O)c1nc(Cl)c(N)nc1N)NCCCC[C@H](N[*:1])C(=O)[*:2]].[O=C(CCCCCN[*:1])[*:2]].A.S.H.L.R.K.L.R.K.R.L.L.[am]}$$$$V2.0) | 80 nM |
| CC[C@H](C)[C@H](NC(=O)[C@H](Cc1ccc(O)cc1)NC(=O)[C@@H]1C[C@@H](O)CN1C(=O)[C@H](C)NC(=O)[C@H](CC(C)C)NC(=O)[C@H](C)NC(=O)CCCCCNC(=O)[C@H](CCCCn1cc(CCCCCNC(N)=NC(=O)c2nc(Cl)c(N)nc2N)nn1)NC(C)=O)C(N)=O [Conjugate 4, Ac-(AmilCC1-AzK)-Ahx-ALA(Hyp)YI-NH2] | 240 nM |
| CC(=O)N[C@@H](CCCCn1cc(CCCCCNC(N)=NC(=O)c2nc(Cl)c(N)nc2N)nn1)C(=O)NCCCCCC(=O)N[C@H](C(=O)N[C@@H](CO)C(=O)N[C@@H](CCCCN)C(=O)N[C@@H](CCCNC(=N)N)C(=O)N[C@@H](CCCNC(=N)N)C(N)=O)C(C)C [Conjugate 6, Ac-(AmilCC1-AzK)-Ahx-VSKRR-NH2] | 90 nM |

same assay, conditions: relative to amiloride IC50

| Compound | fold more potent than amiloride (ENaC inhibition) |
| --- | --- |
| CC(=O)N[C@@H](CCCCn1cc(CCCCCNC(N)=NC(=O)c2nc(Cl)c(N)nc2N)nn1)C(=O)NCCCCCC(=O)N[C@@H](C)C(=O)N[C@@H](CO)C(=O)N[C@@H](Cc1c[nH]cn1)C(=O)N[C@@H](CC(C)C)C(=O)N[C@@H](CCCNC(=N)N)C(=O)N[C@@H](CCCCN)C(=O)N[C@@H](CC(C)C)C(=O)N[C@@H](CCCNC(=N)N)C(=O)N[C@@H](CCCCN)C(=O)N[C@@H](CCCNC(=N)N)C(=O)N[C@@H](CC(C)C)C(=O)N[C@@H](CC(C)C)C(N)=O [Conjugate 5] | about 10 fold |
